Measurements reported in US5877199A, “Heterocyclic compounds, their preparation and their therapeutic use” (priority 1994, dated 1999).

biological target: T1, m1 muscarinic receptors (Homo sapiens, UniProt P11229); test: Effect on ACh binding: ACh inhibition of 3H-NMS binding (indirect assay) on CHO cell membranes; conditions: tested at 3 μg/ml; 0.15 nM 3H-NMS, 30 μM ACh, 0.2 mM GTP, pH 7.4, 30° C., two hours
T1 construct: expressed in transfected cells; host or cells: CHO (Chinese Hamster Ovary) cells, membranes
T1 sequence (P11229 1-460): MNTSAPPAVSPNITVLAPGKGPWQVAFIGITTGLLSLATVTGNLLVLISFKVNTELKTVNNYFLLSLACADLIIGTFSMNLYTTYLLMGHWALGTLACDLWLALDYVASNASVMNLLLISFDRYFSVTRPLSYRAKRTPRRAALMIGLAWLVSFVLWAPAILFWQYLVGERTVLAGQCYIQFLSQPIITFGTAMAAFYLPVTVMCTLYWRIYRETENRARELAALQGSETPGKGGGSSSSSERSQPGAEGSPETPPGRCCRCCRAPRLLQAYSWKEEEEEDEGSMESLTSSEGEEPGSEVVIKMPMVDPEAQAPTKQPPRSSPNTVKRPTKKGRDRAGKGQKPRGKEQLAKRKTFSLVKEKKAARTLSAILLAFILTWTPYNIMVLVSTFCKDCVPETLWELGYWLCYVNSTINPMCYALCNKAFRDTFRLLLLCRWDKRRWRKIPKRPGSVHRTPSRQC
Description: The compounds of the present invention may be assayed for allosteric activity at m1 muscarinic receptors as described below, although the assays we describe are not necessarily exhaustive, and other assays may be employed, as desired, to establish allosterism.
A suitable cell line is CHO (Chinese Hamster Ovary), which are readily engineered to express only one receptor sub-type.
To obtain the large amount of cell membranes required, plates of 530 cm^2 culture area were used. CHO cells which express m1, m2, m3 and m4 receptors were grown separately in MEM alpha medium containing 10% newborn calf serum and antibiotics. When cells reached confluence, they were washed twice with 10 ml of 20 mM HEPES containing 10 mM EDTA (pH 7.4), scraped into the same buffer and homogenized using a Polytron (trademark) homogenizer (setting 5-6 for 5 sec×2). Membrane pellets were obtained by centrifugation (40000×g, 10 min, 4° C.) and resuspended in 20 mM HEPES-0.1 mM EDTA (pH 7.4). Centrifugation and resuspension were repeated twice to wash the cell membranes. After measurement of membrane protein, the membranes (1 or 2 mg protein/ml) were stored at -70° C.
While the direct assay measures ACh (=acetylcholine) binding only to the high affinity state, the indirect assay measures effects only at the low affinity state. This is achieved by including 0.2 mM GTP in the assay. In this assay a fixed concentration of ^3 H-NMS (roughly the Kd value) is incubated in the absence and presence of a fixed concentration of ACh (at about the IC50 value) and the effects of three concentrations of test agent are measured, again in the absence and presence of ACh.
Calculating the effects on ^3 H-NMS binding alone is as follows: binding in the presence of the agent is expressed as a percentage of binding in its absence and, if the effect is inhibitory, an IC50 is estimated graphically. The assay also contains a single high concentration of ^3 H-NMS (4 nM, about 30 times the Kd) which provides an estimate of Bmax (i.e. maximum binding).
Expressing the effect on cold ACh binding will be explained with reference to FIGS. 1a, b and c. These figures show theoretical data and the effects of the transformations described below. In FIGS. 1a and 1b ^3 H-NMS and cold ACh are present at their Kd concentrations; in FIG. 1a the agent has a negative allosteric effect on ^3 H-NMS, while in FIG. 1b it has a positive allosteric effect on ^3 H-NMS. The left panels show the amount of ^3 H-NMS specifically bound in the assay. If the affinity of ACh is reduced by the test agent, as shown in the top panels of FIGS. 1a and 1b, the inhibition by ACh will decrease, but the counts recovered will also depend on the effect of the agent on ^3 H-NMS binding alone. To calculate the effect on ACh binding the inhibitory effect of ACh is first calculated as a percent of its own control in the absence of ACh. Next it is assumed that fractional inhibition is the same as tractional occupancy, and inhibition in the presence of agent is expressed as a percentage of inhibition in the absence of agent. The effects of these transformations are shown in the centre panels. Expressing inhibition by ACh in the presence of agent as a percentage of inhibition in the absence of agent allows the effect of the agent on cold ACh binding to be seen on the same scale as the effect on ^3 H-NMS and ^3 H-ACh binding and is generally preferred.
If the concentration of ^3 H-NMS used in the indirect assay is around the Kd value or less, the transformation described above provides a qualitative and semi-quantitative measure of the agent's effect. If a higher concentration of ^3 H-NMS is used, or if the agent has a positive allosteric effect on ^3 H-NMS, then the results of this transformation may be misleading. […] It is assumed that ACh binds to a single affinity state i.e. that its inhibition curve has a slope of 1, and so an IC50 is calculated from the percentage inhibition of control binding. […]

First: O=C(O)CC1CCc2c(n(Cc3ccccc3)c3ccccc23)S1 (centres unmarked) [Example 83, 2-(9-Benzyl-2,3,4,9-tetrahydrothiopyrano[2,3-b]indol-2-yl) acetic acid]
Second: c1ccc(Cn2c3c(c4ccccc42)CCC(Cc2nnn[nH]2)S3)cc1 (centres unmarked) [Example 84, 5-(9-Benzyl-2,3,4,9-tetrahydrothiopyrano[2,3-b]indol-2-yl)methyltetrazole]
The “Effect on ACh Binding” value of the first is lower: 2.08 for the first, 3.30 for the second.

Going from `O=C(O)CC1CCc2[nH]c3ccccc3c2C1` (centres unmarked) [Example 61, (1,2,3,4-Tetrahydrocarbazol-3-yl)acetic acid] to `O=C(O)Cc1cccc2c1ccn2Cc1ccccc1` [Example 91, (1-Benzylindol-4-yl)acetic acid], the “Effect on ACh Binding” value rises from 2.11 to 2.76.

Going from `CSc1c(Cc2nnn[nH]2)ccc2c3ccccc3n(Cc3ccccc3)c12` [Example 77, 5-[(9-Benzyl-1-methylthiocarbazol)-2-ylmethyl]-1H-tetrazole] to `CSc1c(OCC(=O)O)ccc2c3ccccc3n(Cc3ccccc3)c12` [Example 46, (9-Benzyl-1-methylthiocarbazol-2-yloxy)acetic acid], the “Effect on ACh Binding” value falls from 3.69 to 2.21.

Compared with `Cc1cc(CC(=O)O)c([S+](C)[O-])c2c1c1ccccc1n2Cc1ccccc1` (centres unmarked) [Example 200, (9-Benzyl-1-methylsulfinyl-4-methylcarbazol-2-yl)acetic Acid], `CSc1c(CC(=O)O)cc(C)c2c3ccccc3n(Cc3ccccc3)c12` [Example 14, (9-Benzyl-4-methyl-1-methylthiocarbazol-2-yl)acetic acid] is higher in “Effect on ACh Binding” value: 3.59 for the first, 3.89 for the second.

Going from `CCCc1cc(CC(=O)O)c(SC)c2c1c1ccccc1n2Cc1ccccc1` [Example 116, (9-Benzyl-1-methylthio-4-propylcarbazol-2-yl)acetic Acid] to `CSc1c(CC(=O)O)cc(C(C)C)c2c3ccccc3n(Cc3ccccc3)c12` [Example 190, (9-Benzyl-4-isopropyl-1-methylthiocarbazol-2-yl)acetic Acid], the “Effect on ACh Binding” value rises from 3.99 to 4.78.

First: CSc1c(CC(=O)O)ccc2c1c1ccccc1n2Cc1ccccc1 [Example 233, (9-Benzyl-4-methylthiocarbazol-3-yl)acetic Acid]
Second: CSc1c(CC(=O)O)cc(C(F)(F)F)c2c3ccccc3n(Cc3ccccc3)c12 [Example 231, (9-Benzyl-1-methylthio-4-trifluoromethyl carbazol-2-yl)acetic Acid]
The “Effect on ACh Binding” value of the first is lower: 2.26 for the first, 3.78 for the second.

Compared with `CSc1c(CC(=O)O)cc(C)c2c3ccccc3n(Cc3ccc(Cl)cc3)c12` [Example 180, [9-(4-Chlorobenzyl)-4-methyl-1-methylthiocarbazol-2-yl]acetic Acid], `CSc1c(CC(=O)O)cc(C)c2c3ccccc3n(Cc3ccc(F)cc3)c12` [Example 143, [9-(4-Fluorobenzyl)-4-methyl-1-methylthiocarbazol-2-yl]acetic Acid] is higher in “Effect on ACh Binding” value: 5.02 for the first, 5.36 for the second.

First: CCCSc1c(CC(=O)O)cc(C)c2c3ccccc3n(Cc3ccccc3)c12 [Example 217, (9-Benzyl-4-methyl-1-n-propylthiocarbazol-2-yl)acetic Acid]
Second: CCCOc1c(CC(=O)O)cc(C)c2c3ccccc3n(Cc3ccccc3)c12 [Example 132, (9-Benzyl-4-methyl-1-propoxycarbazol-2-yl)acetic Acid]
The “Effect on ACh Binding” value of the first is higher: 3.99 for the first, 2.68 for the second.

Going from `CSc1c(CC(=O)O)cc(C)c2c3ccccc3n(CCc3cccc(Cl)c3)c12` [Example 229, {9-[2-(3-Chlorophenyl)ethyl]-4-methyl-1-methylthiocarbazol-2-yl}acetic Acid] to `CSc1c(CC(=O)O)cc(C)c2c3ccccc3n(Cc3cccc(Cl)c3)c12` [Example 145, [9-(3-Chlorobenzyl)-4-methyl-1-methylthiocarbazol-2-yl]acetic Acid], the “Effect on ACh Binding” value falls from 5.79 to 5.27.

Going from `O=C(O)Cc1ccc2c3ccccc3n(Cc3cccc(OCc4ccccc4)c3)c2c1` [Example 165, [9-(3-Benzyloxybenzyl)carbazol-2-yl]acetic Acid] to `Cc1cc(CC(=O)O)c(OCc2ccccc2)c2c1c1ccccc1n2Cc1ccccc1` [Example 134, (9-Benzyl-1-benzyloxy-4-methylcarbazol-2-yl)acetic Acid], the “Effect on ACh Binding” value rises from 2.24 to 3.40.

Going from `CSc1c(CC(=O)OC(C)(C)C)ccc2c3ccccc3n(Cc3ccc(F)cc3)c12` [Example 8, tert-Butyl [9-(4-fluorobenzyl)-1-methylthiocarbazol-2-yl]acetate] to `CSc1c(CC(=O)O)ccc2c3ccccc3n(Cc3ccc(Cl)cc3)c12` [Example 7, [9-(4-Chlorobenzyl)-1-methylthiocarbazol-2-yl]acetic acid], the “Effect on ACh Binding” value rises from 3.46 to 3.55.

First: Cc1cc(CC(=O)O)c(SCc2ccccc2)c2c1c1ccccc1n2C [Example 206, (1-Benzylthio-4,9-dimethylcarbazol-2-yl)acetic Acid]
Second: Cc1cc(CC(=O)O)c(S(C)(=O)=O)c2c1c1ccccc1n2Cc1ccccc1 [Example 202, (9-Benzyl-1-methylsulfonyl-4-methylcarbazol-2-yl)acetic Acid]
The “Effect on ACh Binding” value of the first is lower: 2.13 for the first, 2.66 for the second.

Compared with `CSc1c(CC(=O)O)cc(C)c2c3ccccc3n(Cc3cccc(F)c3)c12` [Example 141, [9-(3-Fluorobenzyl)-4-methyl-1-methylthiocarbazol-2-yl]acetic Acid], `COc1ccc2c(c1)c1c(C)cc(CC(=O)O)c(SC)c1n2Cc1ccccc1` [Example 182, (9-Benzyl-6-methoxy-4-methyl-1-methylthiocarbazol-2-yl)acetic Acid] is lower in “Effect on ACh Binding” value: 3.81 for the first, 2.57 for the second.

Going from `CSc1c(C(Cc2ccc([N+](=O)[O-])cc2)C(=O)O)ccc2c3ccccc3n(Cc3ccc([N+](=O)[O-])cc3)c12` (centres unmarked) [Example 23, 2-[9-(4-Nitrobenzyl)-1-methylthiocarbazol-2-yl]-3-(4-nitrophenyl)propionic acid] to `CSc1c(C(Cc2ccccc2)C(=O)O)ccc2c3ccccc3n(Cc3ccccc3)c12` (centres unmarked) [Example 17, 2-(9-Benzyl-1-methylthiocarbazol-2-yl)-3-phenylpropionic acid], the “Effect on ACh Binding” value falls from 2.72 to 2.50.

`CC(C)Sc1c(CC(=O)O)cc(C(C)C)c2c3ccccc3n(Cc3ccccc3)c12` [Example 235, (9-Benzyl-4-isopropyl-1-isopropylthiocarbazol-2-yl)acetic Acid] was tested, and the “Effect on ACh Binding” value was 2.82.
